This is an account of results in publication PMC6300130 (Journal of medicinal chemistry, 2018).

Broadly, the IC50 is the concentration that inhibits the measured activity by half.

The subject of data set [1] is P. falciparum strain 3D7. Conditions: cited from earlier work.
Data set [2] relates to P. falciparum had1 mutant strain. Conditions: cited from earlier work.
Data set [3] relates to HepG2 cells. Nature of the data set: HepG2 cytotoxicity. Format: cell-based, human. Conditions: HepG2 IC50/P. falciparum IC50.
Data set [4] relates to P. falciparum strain 3D7. Nature of the data set: IPP rescue of inhibitor-treated P. falciparum. Format: cell-based, Plasmodium falciparum. Conditions: 125 μM IPP, 72 h.
Data set [5] has as its system P. falciparum had1 mutant strain. Nature of the data set: Growth inhibition of had1 mutant P. falciparum. Conditions: for sensitivity in had1 + HAD1-GFP strain: mutant supplied with wild-type copy of HAD1. Format: cell-based, Plasmodium falciparum.
In data set [6] the test system is MEP pathway metabolites in P. falciparum 3D7 parasites. The data set can be described thus: MEP pathway metabolite profiling by LC-MS/MS. Format: cell-based, Plasmodium falciparum. Conditions: 5× the IC50 value, 10 h.
A short description of data set [7]: Tolerability in mice during efficacy study. Conditions: 20 and 50 mg/kg ip daily for 5 days. Format: in vivo, mouse.
Data set [8] relates to Mycobacterium tuberculosis (Mtb) DXR. Conditions: cited from earlier work.
Data set [9] concerns Mtb. Conditions: cited from earlier work.
The conditions of data set [10]: cited from earlier work.

Where “and” joins values, the source holds several entries; their conditions need not be identical. Identical values can stand only once. Like-named read-outs stand apart in the source and are kept apart here.

Turning to `O=CN(O)CCCP(=O)([O-])O.[Na+]` [1a, Fosmidomycin], the “rescue of growth by exogenous IPP” value in [1] is given as “restoration effect”. For the same compound, the “resistance of had1 parasites” value in [2] is recorded as “resistant”.
Consider `O=CN(O)C/C=C/P(=O)([O-])O.[Na+]` [12a, Sodium Hydrogen [(1E)-3-(N-Hydroxyformamido)prop-1-en-1-yl]phosphonate], for which the “SI^Pf selectivity index” value in data set [3] was above 2632. Further, in [4], the “rescue of growth by exogenous IPP” value is reported as “effectively rescues growth”. For the same compound, in data set [5], the “sensitivity in had1 + HAD1-GFP strain” value is “restored”.
As for `CC(=O)N(C/C=C/P(=O)([O-])O)OCc1ccc(C(C)C)cc1.[Na+]` [16e], the “rescue of growth by exogenous IPP” value in [4] is “restored by IPP supplementation”. In addition, the “resistance of had1 parasites compared with wild-type” value in data set [5] (words) was “more resistant”.
As for `CC(C)(C)C(=O)OCOP(=O)(/C=C/CN(O)C=O)OCOC(=O)C(C)(C)C` [18a, [({[(2,2-Dimethylpropanoyl)oxy]methoxy}[(1E)-3-(N-hydroxyformamido)prop-1-en-1-yl]phosphoryl)oxy]methyl 2,2-Dimethylpropanoate], in [4], the “rescue of growth by exogenous IPP” value is on record as “effectively rescues growth”. For the same compound, the “DOXP level, treated vs untreated parasites” value in data set [6] is given as “did not show significant difference”. Further, in data set [5], the “sensitivity in had1 + HAD1-GFP strain” value is “restored”. In data set [7], the tolerability in mice entry is on record as “no adverse effects were observed”.
Turning to `CC(=O)N(O)C/C=C/P(=O)([O-])O.[Na+]` [compound 2], the “increase in potency against Mtb DXR compared with FR900098” value in [8] was 2 fold. Besides, in [8] (read-out: Mtb DXR IC50), the IC50 is 1070 nM.
On to `CC(=O)N(O)C/C=C/P(=O)(OCOC(=O)C(C)(C)C)OCOC(=O)C(C)(C)C` [compound 3], for which the “Mtb MIC99” value in data set [9] was 9.4 μg/mL and 22 μM. The “in vivo antimalarial activity” value in data set [10] is recorded as “potent in vivo antimalarial activity”.
In the case of `CC(=O)N(CCCP(=O)(OCOC(=O)C(C)(C)C)OCOC(=O)C(C)(C)C)OCc1ccc2ccccc2c1` [compound 5], the “Mtb MIC99” value in [9] was 18.75 μg/mL and 33.2 μM.
